Measured values reported in patent US20170246166A1, “1,2-BENZOTHIAZOLE COMPOUNDS FOR THE TREATMENT OF KIDNEY DISORDERS” (priority 2014, published 2017).

Assays:
human PKCι = target: T1, human PKCι (Homo sapiens, UniProt P41743); test: PKC isoforms based HTRF KinEASE-STK assay, PKCι; type: biochemical; conditions: 87.5 μM ATP in substrate mix, 70 min
T1 sequence (P41743 1-596): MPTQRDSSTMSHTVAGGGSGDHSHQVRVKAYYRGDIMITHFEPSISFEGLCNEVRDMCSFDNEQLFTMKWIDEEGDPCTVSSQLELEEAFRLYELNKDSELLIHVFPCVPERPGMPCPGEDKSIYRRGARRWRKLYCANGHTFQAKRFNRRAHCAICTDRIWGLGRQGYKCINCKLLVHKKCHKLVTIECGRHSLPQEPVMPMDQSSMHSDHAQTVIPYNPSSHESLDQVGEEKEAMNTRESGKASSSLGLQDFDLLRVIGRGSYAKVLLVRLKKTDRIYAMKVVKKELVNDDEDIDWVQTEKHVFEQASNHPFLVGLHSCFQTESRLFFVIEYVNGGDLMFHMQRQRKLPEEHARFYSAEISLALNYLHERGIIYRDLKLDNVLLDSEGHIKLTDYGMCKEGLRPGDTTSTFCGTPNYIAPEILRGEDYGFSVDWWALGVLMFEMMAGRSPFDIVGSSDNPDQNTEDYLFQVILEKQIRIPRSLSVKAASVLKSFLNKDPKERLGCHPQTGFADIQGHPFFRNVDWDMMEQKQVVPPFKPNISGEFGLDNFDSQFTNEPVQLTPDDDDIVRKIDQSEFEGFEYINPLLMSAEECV
Text: (§1) The purpose of this assay is to evaluate the inhibitory activity of compounds on various PKC isoforms. It has been reported that perturbations in vascular cell homeostasis caused by different PKC isoforms (PKC-α, β1/2, and PKC-δ) are linked to the development of pathologies affecting large vessel (atherosclerosis, cardiomyopathy) and small vessel (retinopathy, nephropathy, and neuropathy) complications. Geraldes, P. and King, G. L., “Activation of Protein Kinase C Isoforms and Its Impact on Diabetic Complications”, Cir.
(§2) Effects of a test compound on the kinase activity of PKCα, β2, δ, ε, ι, and ζ, are determined using a HTRF KINEASE™-STK assay kit (Cisbio) in accordance with the protocol provided by the vendor. It is a general method for measuring Serine/Threonine kinase activities using kinase substrates and a universal detection system. In the current protocol, biotinilated STK1provided in the assay kit is used as the substrate that can be phosphorylated by any PKC isoform. The HTRF KINEASE™-STK assay kit format involves the two steps (Enzymatic step and Detection step) described below. First, the kinase phosphorylates the substrate in the presence of ATP. Second, the detection reagents provided in the assay kit recognize the phosphorylated substrate.

PKC = test: Cell-based assay of PKC inhibition (PKC substrate phosphorylation in THP-1 cells); conditions: human THP-1 cells, 1.5 h compound, then 20 nM PMA for 30 min; read-out: absolute IC50, PKC substrate phosphorylation
Experimental: The purpose of this assay is to test the inhibitory effects of a test compound on PKC in a cell-based system by measuring the level of PKC substrate phosphorylation.
Staurosporin may be used as a positive control. It is prepared in DMSO to make up a […] solution and then serially diluted in plain RPMI 1640 culture medium (10 μM-0.0005 μM) to obtain a ten-point dilution curve. Test compounds are prepared in the same manner.
THP-1 cells (human macrophage cell line) are obtained from ATCC (ATCC TIB-202 lot 4028542). The cells are cultured in 96-well plates coated with poly-d-lysine (Becton Dickinson) with seeding density of 4000 cells/well in RPMI 1640 culture medium (Gibco) with 1% fetal bovine serum (Gibco). […]
After the incubation, the cells are first fixed in the Prefer fixative (ANATECH LTD) for 30 min at room temperature. […] Plates are scanned with an ACUMEN EXPLORER™ Laser-scanning fluorescence microplate cytometer (TTP LABTECH LTD), with 488 nm laser excitation to detect emission fluorescence at 655 nm-705 nm (emission of DNA bound propidium iodide) for cell counting/well, and emission of 505 nm-530 nm fluorescence of antibody binding to phosphorylated PKC substrates in cells. The main assay output is a ratio of total fluorescence of phosphorylated PKC substrates to total cell number (ratio=total intensity/total cell number). […]

human PKCβ2 = human PKCβ2 (Homo sapiens, UniProt P05771); test: PKC isoforms based HTRF KinEASE-STK assay, PKCβ2; type: biochemical; conditions: 25 μM ATP in substrate mix, 30 min
Text: as §1, §2

Sequence of human PKCβ2 (P05771 1-673 isoform P05771-2): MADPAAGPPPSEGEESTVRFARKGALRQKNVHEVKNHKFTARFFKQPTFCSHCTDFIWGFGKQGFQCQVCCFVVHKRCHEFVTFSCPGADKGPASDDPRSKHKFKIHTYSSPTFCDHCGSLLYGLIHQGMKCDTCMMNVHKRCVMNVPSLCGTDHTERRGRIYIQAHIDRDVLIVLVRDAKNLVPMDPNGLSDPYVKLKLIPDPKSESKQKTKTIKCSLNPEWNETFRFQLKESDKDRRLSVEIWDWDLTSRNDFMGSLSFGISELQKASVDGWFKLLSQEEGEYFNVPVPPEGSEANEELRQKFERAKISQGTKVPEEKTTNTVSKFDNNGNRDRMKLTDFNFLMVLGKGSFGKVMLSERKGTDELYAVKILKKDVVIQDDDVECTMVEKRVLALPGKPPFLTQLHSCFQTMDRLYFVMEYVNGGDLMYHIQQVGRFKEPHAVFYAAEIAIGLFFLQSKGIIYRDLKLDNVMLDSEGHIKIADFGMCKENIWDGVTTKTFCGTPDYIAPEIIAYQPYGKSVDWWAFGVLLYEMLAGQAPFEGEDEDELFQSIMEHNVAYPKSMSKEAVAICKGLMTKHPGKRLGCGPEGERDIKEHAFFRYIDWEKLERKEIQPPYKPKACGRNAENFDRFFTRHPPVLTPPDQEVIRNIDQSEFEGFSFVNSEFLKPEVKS

IC50 (human PKCι): > 20 µM | IC50 (PKC): ~0.8 µM | IC50 (human PKCβ2): ~0.051 µM
SMILES: C[C@@H]1CN(C(=O)c2cc(-c3c(F)cc(O)cc3F)cc3cnsc23)C[C@H](C)N1.Cl [Example 2, 4-(7-{[(3R,5 S)-3,5-DIMETHYLPIPERAZIN-1-YL]CARBONYL}-1,2-BENZOTHIAZOL-5-YL)-3,5-DIFLUOROPHENOL HYDROCHLORIDE]
